Assay results published in patent US20090023747A1, “Cysteine Protease Inhibitors” (priority 2005, published 2009).
pIC50: −log10 of the molar value.

Tests used:
[1] = biological target: T1, cathepsin K (Homo sapiens, UniProt P43235); assay: Determination of cathepsin K proteolytic catalytic activity (fluorogenic peptide substrate); type: biochemical; conditions: human recombinant enzyme
T1 construct: made in house; host or cells: not fixed: E coli, Pichia or Baculovirus systems named as options
T1 sequence (P43235 115-329): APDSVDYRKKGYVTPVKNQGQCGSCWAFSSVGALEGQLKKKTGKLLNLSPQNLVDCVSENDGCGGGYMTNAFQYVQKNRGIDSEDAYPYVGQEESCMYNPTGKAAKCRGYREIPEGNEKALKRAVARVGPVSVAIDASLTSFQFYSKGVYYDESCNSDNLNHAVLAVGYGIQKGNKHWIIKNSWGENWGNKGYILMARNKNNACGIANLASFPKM
Procedure: Convenient assays for cathepsin K are carried out using human recombinant enzyme, such as that described in PDB.
The recombinant cathepsin K can be expressed in a variety of commercially available expression systems including E coli, Pichia and Baculovirus systems.
The purified enzyme is activated by removal of the prosequence by conventional methods.
Standard assay conditions for the determination of kinetic constants used a fluorogenic peptide substrate, typically H-D-Ala-Leu-Lys-AMC, and were determined in either 100 mM Mes/Tris, pH 7.0 containing 1 mM EDTA and 10 mM 2-mercaptoethanol or 100 mMNa phosphate, imM EDTA, 0.1% PEG4000 pH 6.5 or 100 mM Na acetate, pH 5.5 containing 5 mM EDTA and 20 mM cysteine, in each case optionally with […] as stabiliser. The enzyme concentration used was 5 nM. The stock substrate solution was prepared at 10 mM in DMSO. Screens were carried out at a fixed substrate concentration of 60 μM and detailed kinetic studies with doubling dilutions of substrate from 250 μM. The total DMSO concentration in the assay was kept below 3%. All assays were conducted at ambient temperature. Product fluorescence (excitation at 390 nm, emission at 460 nm) was monitored with a Labsystems Fluoroskan Ascent fluorescent plate reader. Product progress curves were generated over 15 minutes following generation of AMC product.
(§1) Potential inhibitors are screened using the above assay with variable concentrations of test compound. Reactions were initiated by addition of enzyme to buffered solutions of substrate and inhibitor. Ki values were calculated according to equation 1
(§2) where v0 is the velocity of the reaction, V is the maximal velocity, S is the concentration of substrate with Michaelis constant of KM, and I is the concentration of inhibitor.

[2] = biological target: cathepsin L (Homo sapiens, UniProt P07711); assay: Cathepsin L Ki determination (H-D-Val-Leu-Lys-AMC substrate); type: biochemical
Sequence of cathepsin L (P07711 114-333): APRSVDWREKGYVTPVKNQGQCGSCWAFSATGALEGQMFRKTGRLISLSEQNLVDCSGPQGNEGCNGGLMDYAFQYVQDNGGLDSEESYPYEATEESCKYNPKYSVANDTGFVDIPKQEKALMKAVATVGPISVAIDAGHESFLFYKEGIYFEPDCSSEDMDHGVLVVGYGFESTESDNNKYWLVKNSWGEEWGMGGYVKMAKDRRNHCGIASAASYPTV
Procedure: The procedure above with the following amendments is used for the determination of Ki for cathepsin L.
The enzyme is commercially available human cathepsin L (for example Calbiochem). The substrate is H-D-Val-Leu-Lys-AMC available from Bahcem. The assay buffer is 100 mM sodium acetate 1 mM EDTA, pH5.5) The DMSO stock (10 mM in 100% DMSO) is diluted to 10% in assay buffer. Enzyme is prepared at 5 nM concentration in assay buffer plus 1 mM dithiothreitol just before use. 2 ul of 10 mM inhibitor made up in 100% DMSO is dispensed into row A. 10 ul of 50 uM substrate (=1/200 dilution of 10 mM stock in DMSO, diluted in assay buffer)
as §1, §2

[3] = biological target: T2, cathepsin S (Homo sapiens, UniProt P25774); assay: Cathepsin S Ki determination (boc-Val-Leu-Lys-AMC substrate); type: biochemical; conditions: baculovirus-expressed human cathepsin S
T2 construct: made in house
T2 sequence (P25774 115-331): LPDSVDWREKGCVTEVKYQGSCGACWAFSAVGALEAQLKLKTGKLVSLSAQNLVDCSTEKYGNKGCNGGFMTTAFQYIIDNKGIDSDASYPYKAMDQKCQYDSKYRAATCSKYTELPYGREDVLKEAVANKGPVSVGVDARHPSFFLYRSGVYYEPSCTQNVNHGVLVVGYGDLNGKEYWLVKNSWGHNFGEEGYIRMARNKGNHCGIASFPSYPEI
Procedure: The assay uses baculovirus-expressed human cathepsin S and the boc-Val-Leu-Lys-AMC fluorescent substrate available from Bachem in a 384 well plate format, in which 7 test compounds can be tested in parallel with a positive control comprising a known cathepsin S inhibitor comparator.
280 μl/well of 12.5% DMSO are added to rows B-H of two columns of a 96 deep well polypropylene plate. 70 μl/well of substrate is added to row A. 2×250 μl/well of assay buffer (100 mM Na phosphate, 100 mM NaCl, pH 6.5) is added to row A, mixed, and double diluted down the plate to row H.
100 μl/well of assay buffer is added to columns 2-5 and 7-12 of 4 rows of a 96 well V bottom polypropylene plate. 200 μl/well of assay buffer is added to columns 1 and 6.
2 μl of each 10 mM test compound is added to a separate well on row A, columns 1-10. Add 90 μl assay buffer containing 1 mM DTT and 2 nM cathepsin S to each well of rows B-H and 180 μl to row A. Mix row A using a multichannel pipette and double dilute to row G. Mix row H and read in the fluorescent spectrophotometer.
The second test compound is added to column 6 of the top row, the third to column 1 of the second row etc. Add 1 μl of comparator to column 6 of the bottom row. Mix column 1 and double dilute to column 5. Mix column 6 and double dilute to column 10.
Using an 8-channel multistepping pipette set to 5×10 μl, distribute 10 μl/well of substrate to the 384 well assay plate. Distribute the first column of the substrate dilution plate to all columns of the assay plate starting at row A. The tip spacing of the multichannel pipette will correctly skip alternate rows. Distribute the second column to all columns starting at row B.
Using a 12-channel multistepping pipette set to 4×10 μl, distribute 10 μl/well of inhibitor to the 384 well assay plate. Distribute the first row of the inhibitor dilution plate to alternate rows of the assay plate starting at A1. The tip spacing of the multichannel pipette will correctly skip alternate columns. Similarly, distribute the second, third and fourth rows to alternate rows and columns starting at A2, B1 and B2 respectively.
Mix 20 ml assay buffer and 20 μl 1M DTT. Add sufficient cathepsin S to give 2 nM final concentration.
Using the a distributor such as a Multidrop 384, add 30 μl/well to all wells of the assay plate and read in fluorescent spectrophotomoter such as an Ascent.
Fluorescent readings, (excitation and emission wavelengths 390 nm and 460 nm respectively, set using bandpass filters) reflecting the extent of enzyme cleavage of the fluorescent substrate, […] the inhibitor, are linear rate fitted for each well.
Fitted rates for all wells for each inhibitor are fitted to the competitive inhibition equation using SigmaPlot 2000 to determine V, Km and Ki values.
as §1, §2

[4] = reference markers for the permeability assay; cited from earlier work

Row | SMILES | pIC50 [1] | pIC50 [2] | pIC50 [3] | % absorption in man [4] [%]
1 | CC(C)C[C@H](N[C@@H](c1ccc(-c2csc(N3CCN(C)CC3)n2)cc1)C(F)(F)F)C(=O)N1C[C@H](F)[C@H]2OCC(=O)[C@H]21 [Example 58, (3aS,6S,6aS)-6-Fluoro-4-[(S)-4-methyl-2-((S)-2,2,2-trifluoro-1-{4-[2-(4-methyl-piperazin-1-yl)-thiazol-4-yl]-phenyl}-ethylamino)-pentanoyl]-tetrahydro-furo[3,2-b]pyrrol-3-one] | > 8.30 | 3.86 | 3.73 | 
2 | CC(C)C[C@H](N[C@@H](c1ccc(-c2ccccc2F)cc1)C(F)(F)F)C(=O)N1C[C@H](F)[C@H]2OCC(=O)[C@H]21 [Example 26, (3aS,6S,6aS)-6-Fluoro-4-{(S)-4-methyl-2-[(S)-2,2,2-trifluoro-1-(2′-fluoro-biphenyl-4-yl)-ethylamino]-pentanoyl}-tetrahydro-furo[3,2-b]pyrrol-3-one] | 7.36 | 4.60 | 4.66 | 
3 | CC(C)C[C@H](N[C@@H](c1ccc(-c2ccc(S(C)(=O)=O)cc2)cc1)C(F)(F)F)C(=O)N1C[C@H](F)[C@H]2OCC(=O)[C@H]21 [Example 14, (3aS,6S,6aS)-6-Fluoro-4-[(S)-4-methyl-2-{(S)-2,2,2-trifluoro-1-(4′-methanesulfonyl-biphenyl-4-yl)-ethylamino]-pentanoyl}-tetrahydro-furo[3,2-b]pyrrol-3-one] | 7.54 | 4.00 | 4.44 | 
4 | COc1ccc(-c2ccc([C@H](N[C@@H](CC(C)C)C(=O)N3C[C@H](F)[C@H]4OCC(=O)[C@H]43)C(F)(F)F)cc2)cc1 [Example 31, (3aS,6S,6aS)-6-Fluoro-4-{(S)-4-methyl-2-[(S)-2,2,2-trifluoro-1-(4′-methoxy-biphenyl-4-yl)-ethylamino]-pentanoyl}-tetrahydro-furo[3,2-b]pyrrol-3-one] | 7.15 | 4.54 | 4.72 | 
5 | OC[C@@H](O)[C@@H](O)[C@H](O)[C@H](O)CO [Mannitol] |  |  |  | 16
6 | Cc1ccc(-c2ccc([C@H](N[C@@H](CC(C)C)C(=O)N3C[C@H](F)[C@H]4OCC(=O)[C@H]43)C(F)(F)F)cc2)cc1 [Example 33, (3aS,6S,6aS)-6-Fluoro-4-{(S)-4-methyl-2-[(S)-2,2,2-trifluoro-1-(4′-methyl-biphenyl-4-yl)-ethylamino]-pentanoyl}-tetrahydro-furo[3,2-b]pyrrol-3-one] | 6.72 | 4.70 | 4.70 | 
7 | CC(C)C[C@H](N[C@@H](c1ccc(-c2ccc(F)cc2)cc1)C(F)(F)F)C(=O)N1C[C@H](F)[C@H]2OCC(=O)[C@H]21 [Example 20, (3aS,6S,6aS)-6-Fluoro-4-{(S)-4-methyl-2-[(S)-2,2,2-trifluoro-1-(4′-fluoro-biphenyl-4-yl)-ethylamino]-pentanoyl}-tetrahydro-furo[3,2-b]pyrrol-3-one] | 6.74 | 4.52 | 4.43 | 
8 | CSc1ccc(-c2ccc([C@H](N[C@@H](CC(C)C)C(=O)N3C[C@H](F)[C@H]4OCC(=O)[C@H]43)C(F)(F)F)cc2)cc1 [Example 28, (3aS,6S,6aS)-6-Fluoro-4-{(S)-4-methyl-2-[(S)-2,2,2-trifluoro-1-(4′-methylsulfanyl-biphenyl-4-yl)-ethylamino]-pentanoyl}-tetrahydro-furo[3,2-b]pyrrol-3-one] | 7.29 | 5.26 | 5.00 | 
9 | CC(C)C[C@H](N[C@@H](c1ccc(-c2ccc([S+](C)[O-])cc2)cc1)C(F)(F)F)C(=O)N1C[C@H](F)[C@H]2OCC(=O)[C@H]21 (stereo partly drawn) [Example 29, (3aS,6S,6aS)-6-Fluoro-4-{(S)-4-methyl-2-[(S)-2,2,2-trifluoro-1-(4′-methylsulfoxide-biphenyl-4-yl)-ethylamino]-pentanoyl}-tetrahydro-furo[3,2-b]pyrrol-3-one] | 7.74 | 3.74 | 4.57 | 
10 | N[C@@H](Cc1ccccc1)C(=O)O [L-Phenylalanine] |  |  |  | 100
11 | CN(Cc1cnc2nc(N)nc(N)c2n1)c1ccc(C(=O)N[C@@H](CCC(=O)O)C(=O)O)cc1 [Methotrexate] |  |  |  | 20
12 | CC(C)C[C@H](N[C@@H](c1ccc(-c2cccc(S(C)(=O)=O)c2)cc1)C(F)(F)F)C(=O)N1C[C@H](F)[C@H]2OCC(=O)[C@H]21 [Example 18, (3aS,6S,6aS)-6-Fluoro-4-{(S)-4-methyl-2-[(S)-2,2,2-trifluoro-1-(3′-methanesulfonyl-biphenyl-4-yl)-ethylamino]-pentanoyl}-tetrahydro-furo[3,2-b]pyrrol-3-one] | 7.25 | 4.03 | 4.72 | 
